Patent US8575091B1, “Amylin analogues and pharmaceutical compositions thereof” (Novo Nordisk A/S, priority 2012, dated 2013)
pEC50, pIC50: −log10 of the molar value. Entries after “also recorded” stand apart in the source; their conditions may differ. Numbered stars: 1 amine (or outer) side, 2 acyl side, 3 side chain; on linkers, the order of the positions; unused ones are H or OH. Bridge positions count the residues as written; N and C are the ends. Side chains are listed from the residue outwards. Peptide text beside a SMILES is read from it. * marks the point of attachment. C20 diacid = O=C(O)CCCCCCCCCCCCCCCCCCC(=O)*; γGlu = O=C(O)[C@H](CCC(=O)[*:2])N[*:1]

Tests used:
[1] = biological target: T1, human amylin receptor (amylin 3(a) receptor: human calcitonin receptor + RAMP-3) (Homo sapiens, UniProt O60896+P30988); assay: Assay (II)a functional assay, human amylin receptor (CRE luciferase, BHK cells); assay type: cell-based; conditions: for pEC50: functional assay, human amylin receptor, read-out: hAmylin-R funct. EC50
T1 construct: expressed in transfected cells
T1 sequence (P30988 25-474): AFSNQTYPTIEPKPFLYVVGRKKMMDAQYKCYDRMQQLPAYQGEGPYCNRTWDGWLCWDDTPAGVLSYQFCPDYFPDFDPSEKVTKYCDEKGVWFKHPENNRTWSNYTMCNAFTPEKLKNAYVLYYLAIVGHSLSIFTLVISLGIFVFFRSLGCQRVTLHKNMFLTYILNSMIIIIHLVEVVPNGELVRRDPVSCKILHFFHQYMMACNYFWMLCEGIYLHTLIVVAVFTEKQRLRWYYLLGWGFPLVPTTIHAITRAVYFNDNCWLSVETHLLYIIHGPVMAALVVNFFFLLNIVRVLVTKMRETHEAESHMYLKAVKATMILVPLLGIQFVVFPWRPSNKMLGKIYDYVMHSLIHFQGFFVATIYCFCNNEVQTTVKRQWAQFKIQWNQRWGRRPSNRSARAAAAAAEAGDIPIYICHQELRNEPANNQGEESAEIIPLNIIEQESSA
T1 sequence (O60896 24-148 partner): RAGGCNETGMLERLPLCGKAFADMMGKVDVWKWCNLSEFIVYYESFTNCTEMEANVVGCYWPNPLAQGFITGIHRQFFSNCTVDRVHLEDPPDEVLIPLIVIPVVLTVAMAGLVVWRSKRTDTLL

[2] = biological target: T2, human calcitonin receptor (Homo sapiens, UniProt P30988); assay: Assay (II)a functional assay, human calcitonin receptor (CRE luciferase, BHK cells);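 note: luminescence from a CRE-driven luciferase reporter, read by single photon counting after cells were exposed to test samples for 3 h at 37 °C under 5% CO2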; assay type: cell-based; conditions: read-out: hCTR funct. EC50
T2 construct: expressed in transfected cells
T2 sequence (P30988 25-474): T1 sequence (P30988 25-474)

human amylin receptor = biological target: T3, human amylin receptor (Homo sapiens, UniProt O60896+P30988); assay: Assay (V) binding to the human amylin receptor (SPA, 125I-rat amylin); conditions: for pIC50: human amylin receptor membranes, SPA, read-out: hAmylin-R bind IC50
T3 construct: expressed in transfected cells
T3 sequence (P30988 25-474): T1 sequence (P30988 25-474)
T3 sequence (O60896 24-148 partner): T1 sequence (O60896 24-148 partner)
Outline: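 IC50, taken as receptor affinity, came from one-site binding competition analysis of scintillation proximity counts. Amylin 3(a)/CRE-luc cell membranes (35 ng/μL final) were mixed with SPA beads (0.05 mg/well) in 50 mM Hepes pH 7.4 containing CaCl2, MgCl2, 0.1% OA and 0.02% Tween20.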

[3] = biological target: T2, human calcitonin receptor; assay: Assay (VII) binding to the human calcitonin receptor (SPA, 125I-Calcitonin); conditions: read-out: hCTR bind IC50;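 note: cell membranes coupled to SPA beads, competitive displacement read by scintillation counting, IC50 derived from a one-site competition fit as a measure of receptor affinity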
Sprague-Dawley rats = assay: Assay (XI) single subcutaneous administration, food intake monitored for 48 hours in rats; assay type: in vivo, rat; conditions: single subcutaneous 30 nmol/kg
Procedure: Assay (XI)—Effect from Single Subcutaneous Administration of Analogue on […] in Rats
Male Sprague-Dawley rats (Taconic Europe, ˜250 g at test date) were acclimatized to reversed day light cycle (lights on from 10 PM to 10 AM) and single housing in online food intake monitoring system (Ellegaard MBRose, Denmark) prior to study start. Rats were divided in groups of five and subcutaneously dosed with test compound (30 nmol/kg) and food intake was monitored for 48 hours hereafter. Data are illustrated in graphs as mean±SEM.

Wistar rats = assay: Assay (XII) single subcutaneous administration, plasma calcium in rats; assay type: in vivo, rat; conditions: for Plasma calcium red (%) 0-12 h: single s.c., maximal reduction 0-12 h, compared to vehicle; for suppression of plasma calcium level relative to vehicle: single subcutaneous, over 24 hours
Procedure: Assay (XII)—Effect from Single Subcutaneous Administration of Analogue on Plasma Calcium in Rats
Male Wistar rats (Taconic Europe, ˜250 g at test date) were acclimatized to handling prior to the study. Rats were divided in groups of five and subcutaneously dosed with test compound at time=0. At time T=−15 min; 1 h, 2 h, 4 h, 7 h, 12 h, and 24 h a blood sample was obtained and heparin stabilized plasma was analysed for total calcium (Cobas, Hitachi). Data are illustrated in graphs as mean±SEM.

SMILES | pEC50 [1] | pEC50 [2] | pIC50 (human amylin receptor) | pIC50 [3] | food intake monitored over 48 hours versus vehicle (Sprague-Dawley rats) | Plasma calcium red (%) 0-12 h (Wistar rats; 30 nmol/kg) [%] | suppression of plasma calcium level relative to vehicle (Wistar rats; increasing doses (all doses tested)) | Ratio hCT/hAmylin binding (human amylin receptor; Table 7b, human calcitonin receptor binding IC50 divided by human amylin receptor binding IC50) | Ratio hCT/hAmylin binding (human amylin receptor; Table 7c, human calcitonin receptor binding IC50 divided by human amylin receptor binding IC50) | Ratio hCT/hAmylin binding (human amylin receptor; human binding ratio, included for comparison) | suppression of plasma calcium level relative to vehicle (Wistar rats; 30 nmol/kg) | suppression of plasma calcium level relative to vehicle (Wistar rats; 1000 nmol/kg) | Ratio hCT/hAmylin funct. ([1]; Table 6, human functional selectivity (hCTR EC50 / hAmylin-R EC50)) | Ratio hCT/hAmylin funct. ([1]; Table 6a, human functional selectivity (hCTR EC50 / hAmylin-R EC50), at least 5) | Ratio hCT/hAmylin funct. ([1]; Table 6i, hCTR funct. EC50 / hAmylin-R funct. EC50) | Ratio hCT/hAmylin funct. ([1]; Table 6j, hCTR funct. EC50 / hAmylin-R funct. EC50) | Ratio hCT/hAmylin funct. ([1]; Table 6k, hCTR funct. EC50 / hAmylin-R funct. EC50) | Plasma calcium red (%) 0-12 h (Wistar rats; 3 nmol/kg) [%] | suppression of plasma calcium level relative to vehicle (Wistar rats; 3 nmol/kg) | suppression of plasma calcium level relative to vehicle (Wistar rats; 100 and 300 nmol/kg)
CC[C@H](C)[C@H](NC(=O)[C@H](C)NC(=O)CNC(=O)[C@H](Cc1ccccc1)NC(=O)[C@H](CC(N)=O)NC(=O)[C@@H]1CCCN1C(=O)[C@H](CO)NC(=O)[C@H](CO)NC(=O)[C@H](Cc1c[nH]cn1)NC(=O)[C@H](CCCNC(=N)N)NC(=O)[C@H](CC(C)C)NC(=O)[C@H](Cc1ccccc1)NC(=O)[C@H](CC(=O)O)NC(=O)[C@H](C)NC(=O)[C@H](CC(C)C)NC(=O)[C@H](CCCNC(=N)N)NC(=O)[C@H](CCC(N)=O)NC(=O)[C@@H](NC(=O)[C@H](C)NC(=O)[C@@H]1CSSC[C@H](NC(=O)[C@@H](N)CCCCNC(=O)CC[C@H](NC(=O)CC[C@H](NC(=O)CCCCCCCCCCCCCCCCCCC(=O)O)C(=O)O)C(=O)O)C(=O)N[C@@H](CC(N)=O)C(=O)N[C@@H]([C@@H](C)O)C(=O)N[C@@H](C)C(=O)N[C@@H]([C@@H](C)O)C(=O)N1)[C@@H](C)O)C(=O)N1CCC[C@H]1C(=O)N[C@@H](CO)C(=O)N[C@@H](CO)C(=O)N[C@H](C(=O)N[C@@H](CC(N)=O)C(=O)N[C@H](C(=O)NCC(=O)N[C@@H](CO)C(=O)N[C@@H](CCCNC(=N)N)C(=O)N[C@H](C(=O)N[C@@H](Cc1ccc(O)cc1)C(N)=O)[C@@H](C)O)C(C)C)[C@@H](C)O [Example 52, N-ε-1-{(S)-4-carboxy-4-[(S)-4-carboxy-4-(19-carboxynonadecanoylamino)butyrylamino]butyryl}-[Asp14,Arg17,Pro21,Pro27,Arg35]-human amylin] | 9.47 | 7.85 | 9.16 | 7.25 | reduces food intake in rats | 12 | None of the doses trigger a notable suppression of the calcium level |  |  |  |  |  |  |  |  |  |  |  |  | 
CC[C@H](C)[C@H](NC(=O)[C@H](C)NC(=O)CNC(=O)[C@H](Cc1ccccc1)NC(=O)[C@H](CC(N)=O)NC(=O)[C@@H]1CCCN1C(=O)[C@H](CO)NC(=O)[C@H](CO)NC(=O)[C@H](Cc1c[nH]cn1)NC(=O)[C@H](CCCNC(=N)N)NC(=O)[C@H](CC(C)C)NC(=O)[C@H](Cc1ccccc1)NC(=O)[C@H](CCC(=O)O)NC(=O)[C@H](C)NC(=O)[C@H](CC(C)C)NC(=O)[C@H](CCCNC(=N)N)NC(=O)[C@H](CCC(N)=O)NC(=O)[C@@H](NC(=O)[C@H](C)NC(=O)[C@@H]1CSSC[C@H](NC(=O)[C@@H](N)CCCCNC(=O)CC[C@H](NC(=O)CC[C@H](NC(=O)CCCCCCCCCCCCCCCCCCC(=O)O)C(=O)O)C(=O)O)C(=O)N[C@@H](CC(N)=O)C(=O)N[C@@H]([C@@H](C)O)C(=O)N[C@@H](C)C(=O)N[C@@H]([C@@H](C)O)C(=O)N1)[C@@H](C)O)C(=O)N1CCC[C@H]1C(=O)N[C@@H](CO)C(=O)N[C@@H](CO)C(=O)N[C@H](C(=O)N[C@@H](CC(N)=O)C(=O)N[C@H](C(=O)NCC(=O)N[C@@H](CO)C(=O)N[C@@H](CCCNC(=N)N)C(=O)N[C@H](C(=O)N[C@@H](Cc1ccc(O)cc1)C(N)=O)[C@@H](C)O)C(C)C)[C@@H](C)O [Example 89] (H-K([γGlu-γGlu-C20 diacid])CNTATCATQRLAEFLRHSSPNFGAIPSSTNVGSRTY-NH2; disulfide 2-7 (inferred); N-terminus and C-terminus assumed) |  |  |  |  | reduce food intake in rats | 7 |  | 28.0 | 28.0 | 28.0 | None of the example compounds at 30 nmol/kg trigger a notable suppression of the calcium level | more pronounced suppression of the calcium level |  |  |  |  |  |  |  | 
CC[C@H](C)[C@H](NC(=O)[C@H](C)NC(=O)CNC(=O)[C@H](Cc1ccccc1)NC(=O)[C@H](CC(N)=O)NC(=O)[C@@H]1CCCN1C(=O)[C@H](CO)NC(=O)[C@H](CO)NC(=O)[C@H](Cc1c[nH]cn1)NC(=O)[C@H](CCCNC(=N)N)NC(=O)[C@H](CC(C)C)NC(=O)[C@H](Cc1ccccc1)NC(=O)[C@H](CCC(=O)O)NC(=O)[C@H](C)NC(=O)[C@H](CC(C)C)NC(=O)[C@H](CCCNC(=N)N)NC(=O)[C@H](CCC(N)=O)NC(=O)[C@@H](NC(=O)[C@H](C)NC(=O)[C@@H]1CSSC[C@H](NC(=O)[C@@H](N)CCCCNC(=O)CC[C@H](NC(=O)CCCCCCCCCCCCCCCCCCC(=O)O)C(=O)O)C(=O)N[C@@H](CC(N)=O)C(=O)N[C@@H]([C@@H](C)O)C(=O)N[C@@H](C)C(=O)N[C@@H]([C@@H](C)O)C(=O)N1)[C@@H](C)O)C(=O)N1CCC[C@H]1C(=O)N[C@@H](CO)C(=O)N[C@@H](CO)C(=O)N[C@H](C(=O)N[C@@H](CC(N)=O)C(=O)N[C@H](C(=O)NCC(=O)N1CCC[C@H]1C(=O)N[C@@H](CCC(=O)O)C(=O)N[C@H](C(=O)N[C@@H](Cc1ccc(O)cc1)C(N)=O)[C@@H](C)O)C(C)C)[C@@H](C)O [Example 109] (H-K([γGlu-C20 diacid])CNTATCATQRLAEFLRHSSPNFGAIPSSTNVGPETY-NH2; disulfide 2-7) | 9.79 | 9.08 | 9.85 | 8.73 | reduces food intake in rats | 27 |  |  |  |  | minor suppression of the calcium level |  | 5.2 | 5.2 | 5.2 | 5.2 | 5.2 | 7 | does not trigger a notable suppression of the calcium level | more pronounced suppression of the calcium level
CC(C)C[C@H](NC(=O)[C@H](CCCCN)NC(=O)CNC(=O)[C@H](CC(C)C)NC(=O)[C@@H](NC(=O)[C@@H]1CSSC[C@H](N)C(=O)N[C@@H](CO)C(=O)N[C@@H](CC(N)=O)C(=O)N[C@@H](CC(C)C)C(=O)N[C@@H](CO)C(=O)N[C@@H]([C@@H](C)O)C(=O)N1)C(C)C)C(=O)N[C@@H](CO)C(=O)N[C@@H](CCC(N)=O)C(=O)N[C@@H](CCC(=O)O)C(=O)N[C@@H](CC(C)C)C(=O)N[C@@H](Cc1c[nH]cn1)C(=O)N[C@@H](CCCCN)C(=O)N[C@@H](CC(C)C)C(=O)N[C@@H](CCC(N)=O)C(=O)N[C@H](C(=O)N[C@@H](Cc1ccc(O)cc1)C(=O)N1CCC[C@H]1C(=O)N[C@@H](CCCNC(=N)N)C(=O)N[C@H](C(=O)N[C@@H](CC(N)=O)C(=O)N[C@H](C(=O)NCC(=O)N[C@@H](CO)C(=O)NCC(=O)N[C@H](C(=O)N1CCC[C@H]1C(N)=O)[C@@H](C)O)[C@@H](C)O)[C@@H](C)O)[C@@H](C)O [salmon calcitonin, reference compound] |  |  |  |  | reduction of food intake; also recorded: reduces food intake in rats | 39 |  |  |  |  |  |  |  |  |  |  |  | 35 |  | 
